Data: patent US9493432B2, “Cyclopentylbenzamide derivatives and their use for the treatment of psychotic and cognitive disorders” (Takeda Pharmaceutical Company Limited, priority 2013, dated 2016)

Experiments:
human orexin receptor 1 = human orexin receptor 1 (Homo sapiens (Human), UniProt O43613); test: Orexin antagonist activity, intracellular calcium FLIPR assay (orexin receptor 1); type: cell-based; settings: RBL-2H3 cells stably expressing human orexin receptor 1; Ca2+ dye FLIPR; compound 15 minutes before orexin-A at approximately 80% maximal response; read-out: Human Orexin1R IC50
Description: (§1) Orexin antagonist activity was determined by measuring changes in intracellular calcium levels using a Ca^2+ sensitive fluorescent dye. The changes in fluorescent signal were monitored by Fluorescent Imaging Plate Reader (FLIPR™) technology available from Molecular Devices, LLC, U.S.A. Orexin mediated increases in intracellular Ca^2+ concentration were readily detected upon activation with orexin-A. Twenty-four hours prior to the assay, RBL-2H3 cells stably expressing either human orexin receptor 1 or human orexin receptor 2 were seeded in cell culture medium in black, clear-bottom 384-well plates (commercially available from Corning Inc., U.S.A.) and grown overnight at 37° C., 5% CO2. On the day of the assay, cell culture media was removed and cells were loaded with Calcium 5 Dye (commercially sold by Molecular Devices, LLC, U.S.A.) for 1 hour at 37° C., 5% CO2. Test compounds (at 10 point half log concentration response curves from 10 μM) were added to cells for 15 minutes prior to the addition of orexin-A to all wells, to achieve a final concentration that produces approximately an 80% maximal response. The IC50 values were determined from ten point concentration response curves. Curves were generated using the average of two wells for each data point.

human orexin receptor 2 = human orexin receptor 2 (Homo sapiens (Human), UniProt O43614); test: Orexin antagonist activity, intracellular calcium FLIPR assay (orexin receptor 2); type: cell-based; settings: RBL-2H3 cells stably expressing human orexin receptor 2; Ca2+ dye FLIPR; compound 15 minutes before orexin-A at approximately 80% maximal response; read-out: Human Orexin2R IC50
Description: as §1

Chain of human orexin receptor 2 (O43614 whole entry): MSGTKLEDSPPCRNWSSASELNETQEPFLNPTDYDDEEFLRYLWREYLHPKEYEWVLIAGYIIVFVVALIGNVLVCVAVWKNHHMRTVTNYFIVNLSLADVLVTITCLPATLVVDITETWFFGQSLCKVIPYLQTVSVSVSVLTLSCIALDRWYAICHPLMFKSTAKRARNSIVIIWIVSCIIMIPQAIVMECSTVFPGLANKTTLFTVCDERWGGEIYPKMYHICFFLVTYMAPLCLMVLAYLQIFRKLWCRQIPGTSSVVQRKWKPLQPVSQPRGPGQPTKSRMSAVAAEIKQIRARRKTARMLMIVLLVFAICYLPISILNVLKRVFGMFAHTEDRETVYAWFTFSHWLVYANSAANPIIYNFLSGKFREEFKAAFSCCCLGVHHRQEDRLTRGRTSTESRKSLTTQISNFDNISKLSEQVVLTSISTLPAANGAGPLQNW
Chain of human orexin receptor 1 (O43613 whole entry): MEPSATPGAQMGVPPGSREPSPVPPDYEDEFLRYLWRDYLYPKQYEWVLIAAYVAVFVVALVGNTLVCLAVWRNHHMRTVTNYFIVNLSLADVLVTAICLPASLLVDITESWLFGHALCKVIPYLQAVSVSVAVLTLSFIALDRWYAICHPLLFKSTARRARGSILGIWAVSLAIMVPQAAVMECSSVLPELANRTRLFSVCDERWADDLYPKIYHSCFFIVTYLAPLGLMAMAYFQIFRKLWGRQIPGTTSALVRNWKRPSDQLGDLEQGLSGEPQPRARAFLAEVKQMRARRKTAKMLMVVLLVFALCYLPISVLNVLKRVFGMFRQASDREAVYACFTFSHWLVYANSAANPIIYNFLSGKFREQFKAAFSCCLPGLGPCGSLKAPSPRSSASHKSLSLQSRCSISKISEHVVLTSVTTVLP

Compound	IC50 (human orexin receptor 1)	IC50 (human orexin receptor 2)
Cc1ccc(-n2nccn2)c(C(=O)NC2CCCC2Cc2ccc3ccccc3n2)c1 (single isomer, unassigned) [Example 61, 5-Methyl-N-[2-(quinolin-2-ylmethyl)cyclopentyl]-2-(2H-1,2,3-triazol-2-yl)benzamide]	35 nM	> 10000 nM
O=C(NC1COCC1Nc1nc2ccc(F)cc2s1)c1ccccc1-n1nccn1 (single isomer, unassigned) [Example 100, trans-N-{4-[(6-Fluoro-1,3-benzothiazol-2-yl)amino]oxolan-3-yl}-2-(2H-1,2,3-triazol-2-yl)benzamide]	22 nM	> 10000 nM
O=C(NC1COCC1Nc1nc2ccc(F)cc2s1)c1ccccc1-n1nccn1 (single isomer, unassigned) [Example 101, trans-N-{4-[(6-Fluoro-1,3-benzothiazol-2-yl)amino]oxolan-3-yl}-2-(2H-1,2,3-triazol-2-yl)benzamide]	730 nM	3800 nM
O=C(NC1CC(F)(F)CC1Nc1nc2ccc(F)cc2s1)c1ccccc1-n1nccn1 (single isomer, unassigned) [Example 104, N-{4,4-Difluoro-2-[(6-fluoro-1,3-benzothiazol-2-yl)amino]cyclopentyl}-2-(2H-1,2,3-triazol-2-yl)benzamide]	13 nM	4500 nM
COc1cccc(OC)c1C(=O)NC1C[C@@H](O)CC1Nc1nc2ccc(Cl)cc2s1 (stereo in doubt) [Example 25, N-[(1S,2R,4R)-2-[(6-Chloro-1,3-benzothiazol-2-yl)amino]-4-hydroxycyclopentyl]-2,6-dimethoxybenzamide]	340 nM	130 nM
Cc1ccccc1C(=O)NC1CCC[C@@H]1Nc1nc2ccc(F)cc2s1 (stereo in doubt) [Example 51, N-[(1S,2S)-2-[(6-Fluoro-1,3-benzothiazol-2-yl)amino]cyclopentyl]-2-methylbenzamide]	250 nM	4000 nM
O=C(N[C@H]1CCCC1Nc1nc2ccc(F)cc2s1)c1ccccc1-n1nccn1 (stereo in doubt) [Example 75, N-[(1S,2R)-2-[(6-Fluoro-1,3-benzothiazol-2-yl)amino]cyclopentyl]-2-(2H-1,2,3-triazol-2-yl)benzamide]	5 nM	260 nM
Cc1noc(-c2ccccc2C(=O)NC2CCC[C@@H]2Nc2nc3ccc(F)cc3o2)n1 (stereo in doubt) [Example 99, N-[(1S,2S)-2-[(6-Fluoro-1,3-benzoxazol-2-yl)amino]cyclopentyl]-2-(3-methyl-1,2,4-oxadiazol-5-yl)benzamide]	12 nM	> 10000 nM
COc1cccc(OC)c1C(=O)N[C@H]1CCC[C@H]1Nc1cnc2ccccc2n1 [Example 1, 2,6-Dimethoxy-N-[(1S,2R)-2-[(quinoxalin-2-yl)amino]cyclopentyl]-benzamide]	0.84 nM	98 nM
COc1cccc(OC)c1C(=O)N[C@H]1CCC[C@@H]1Nc1nc2cc(Cl)ccc2s1 [Example 6, N-[(1S,2S)-2-[(5-Chloro-1,3-benzothiazol-2-yl)amino]cyclopentyl]-2,6-dimethoxybenzamide]	35 nM	> 10000 nM
COc1cccc(OC)c1C(=O)N[C@H]1CCC[C@@H]1N(C)c1nc2ccc(F)cc2s1 [Example 8, N-[(1S,2S)-2-[(6-Fluoro-1,3-benzothiazol-2-yl)(methyl)amino]cyclopentyl]-2,6-dimethoxybenzamide]	35 nM	2100 nM
COc1cccc(OC)c1C(=O)N[C@H]1CCC[C@@H]1Nc1nc2ccccc2o1 [Example 9, N-[(1S,2S)-2-[(1,3-Benzoxazol-2-yl)amino]cyclopentyl]-2,6-dimethoxy-benzamide]	99 nM	> 10000 nM
COc1cccc(OC)c1C(=O)N[C@@H]1CCC[C@H]1Nc1nc2ccccc2o1 [Example 12, N-[(1R,2R)-2-[(1,3-Benzoxazol-2-yl)amino]cyclopentyl]-2,6-dimethoxy-benzamide]	470 nM	3500 nM
COc1cccc(OC)c1C(=O)N[C@@H]1CCC[C@@H]1Nc1nc2ccc(Cl)cc2s1 [Example 13, N-[(1R,2S)-2-[(6-Chloro-1,3-benzothiazol-2-yl)amino]cyclopentyl]-2,6-dimethoxybenzamide]	580 nM	5300 nM
COc1cccc(OC)c1C(=O)N[C@H]1CCC[C@H]1Nc1nc2ccc(Cl)cc2s1 [Example 15, N-[(1S,2R)-2-[(6-Chloro-1,3-benzothiazol-2-yl)amino]cyclopentyl]-2,6-dimethoxybenzamide]	35 nM	160 nM
Cc1ccc(-n2nccn2)c(C(=O)N[C@H]2CCC[C@@H]2Nc2nc3ccc(F)cc3s2)c1 [Example 16, N-[(1S,2S)-2-[(6-Fluoro-1,3-benzothiazol-2-yl)amino]cyclopentyl]-5-methyl-2-(2H-1,2,3-triazol-2-yl)benzamide]	13 nM	2000 nM
Cc1ccc(-n2nccn2)c(C(=O)N[C@H]2CCC[C@@H]2Nc2nc3ccccc3s2)c1 [Example 19, N-[(1S,2S)-2-[(1,3-Benzothiazol-2-yl)amino]cyclopentyl]-5-methyl-2-(2H-1,2,3-triazol-2-yl)benzamide]	15 nM	7300 nM

Results, then the compound that gave them:

IC50 (human orexin receptor 1)	IC50 (human orexin receptor 2)	Compound
> 10000 nM	> 10000 nM	Cc1ccc(-n2nccn2)c(C(=O)NC2CCCC2Cc2ccc3ccccc3n2)c1 (single isomer, unassigned) [Example 62, 5-Methyl-N-[2-(quinolin-2-ylmethyl)cyclopentyl]-2-(2H-1,2,3-triazol-2-yl)benzamide]
266 nM	627 nM	O=C(NC1CC(F)(F)CC1Nc1nc2ccc(F)cc2s1)c1ccccc1-n1nccn1 (single isomer, unassigned) [Example 103, N-{4,4-Difluoro-2-[(6-fluoro-1,3-benzothiazol-2-yl)amino]cyclopentyl}-2-(2H-1,2,3-triazol-2-yl)benzamide]
64 nM	> 10000 nM	COc1cccc(OC)c1C(=O)N[C@H]1CC(F)C[C@H]1Nc1nc2ccc(Cl)cc2s1 (stereo in doubt) [Example 26, N-[(1S,2R)-2-[(6-Chloro-1,3-benzothiazol-2-yl)amino]-4-fluorocyclo-pentyl]-2,6-dimethoxybenzamide]
780 nM	> 10000 nM	O=C(NC1CCC[C@@H]1Nc1nc2ccncc2s1)c1ccccc1-n1nccn1 (stereo in doubt) [Example 97, N-[(1S,2S)-2-({[1,3]Thiazolo[5,4-c]pyridin-2-yl}amino)cyclopentyl]-2-(2H-1,2,3-triazol-2-yl)benzamide]
36 nM	6500 nM	COc1cccc(OC)c1C(=O)N[C@H]1CCC[C@@H]1Nc1cnc2ccccc2n1 [Example 2, 2,6-Dimethoxy-N-((1S,2S)-2-(quinoxalin-2-ylamino)cyclopentyl)benzamide]
4.2 nM	7600 nM	COc1cccc(OC)c1C(=O)N[C@H]1CCC[C@@H]1Nc1nc2ccc(F)cc2s1 [Example 3, N-[(1S,2S)-2-[(6-Fluoro-1,3-benzothiazol-2-yl)amino]cyclopentyl]-2,6-dimethoxybenzamide]
12 nM	> 10000 nM	COc1cccc(OC)c1C(=O)N[C@H]1CCC[C@@H]1Nc1nc2ccccc2s1 [Example 4, N-[(1S,2S)-2-[(1,3-Benzothiazol-2-yl)amino]cyclopentyl]-2,6-dimethoxybenzamide]
12 nM	510 nM	COc1cccc(OC)c1C(=O)N[C@H]1CCC[C@H]1Nc1nc2ccccc2s1 [Example 5, N-[(1S,2R)-2-[(1,3-Benzothiazol-2-yl)amino]cyclopentyl]-2,6-dimethoxybenzamide]
26 nM	1900 nM	COc1cccc(OC)c1C(=O)N[C@H]1CCC[C@H]1Nc1nc2ccccc2o1 [Example 7, N-[(1S,2R)-2-[(1,3-Benzoxazol-2-yl)amino]cyclopentyl]-2,6-dimethoxybenzamide]
210 nM	7200 nM	COc1cccc(OC)c1C(=O)N[C@H]1CCC[C@@H]1Nc1nc2ccc(Cl)cc2s1 [Example 10, N-[(1S,2S)-2-[(6-Chloro-1,3-benzothiazol-2-yl)amino]cyclopentyl]-2,6-dimethoxybenzamide]
360 nM	1800 nM	COc1cccc(OC)c1C(=O)N[C@@H]1CCC[C@H]1Nc1nc2ccccc2s1 [Example 11, N-[(1R,2R)-2-[(1,3-Benzothiazol-2-yl)amino]cyclopentyl]-2,6-dimethoxybenzamide]
1000 nM	680 nM	COc1cccc(OC)c1C(=O)N[C@@H]1CCC[C@H]1Nc1nc2ccc(Cl)cc2s1 [Example 14, N-[(1R,2R)-2-[(6-Chloro-1,3-benzothiazol-2-yl)amino]cyclopentyl]-2,6-dimethoxybenzamide]
25 nM	460 nM	CCOc1cccc(OCC)c1C(=O)N[C@H]1CCC[C@H]1Nc1nc2ccccc2o1 [Example 18, N-[(1S,2R)-2-[(1,3-Benzoxazol-2-yl)amino]cyclopentyl]-2,6-diethoxy-benzamide]
290 nM	4100 nM	Cc1ccc(-n2nccn2)c(C(=O)N[C@H]2CCC[C@@H]2Nc2ccc3ccccc3n2)c1 [Example 20, 5-Methyl-N-[(1S,2S)-2-[(quinolin-2-yl)amino]cyclopentyl]-2-(2H-1,2,3-triazol-2-yl)benzamide]
